From PMC6943437, “Coupling the Antimalarial Cell Penetrating Peptide TP10 to Classical Antimalarial Drugs Primaquine and Chloroquine Produces Strongly Hemolytic Conjugates” (Molecules, 2019)
“And” between values parts separate entries of the source, which are not always exact repeats. Equal values may be shown once. Read-outs that look alike come from different tables or passages of the source.

Experiments:
[1] = In vitro hemolytic activity on Plasmodium-infected erythrocyte cultures; format: cell-based; details: cultures with 3% PiRBC, dash with footnote c = hemolysis not detected, read-out: % hemolysis at 10 µM ± SD (n = 3), PiRBC
Description: (§1) For positive and negative controls, 1% Triton X-100 and PBS were added, respectively. After this period, the plates were centrifuged and supernatants transferred to another plate. Supernatant absorbance at 450 nm was assessed in a multi-mode microplate reader (Triad, Dynex Technologies, Chantilly, VA, USA) and values were treated using the following equation (1):(1) % Hemolysis=Abs−Abs(negative control)/Abs(positive control)−Abs(negative control)

[2] = test system: P. falciparum 3D7; format: cell-based; details: P. falciparum 3D7 (CQ-sensitive), 48 h; read-out: IC50 ± SD (n = 3)
Description: These second-generation conjugates (synthesis routes depicted in Scheme 2; Scheme 3) were evaluated in vitro, alongside the commercial reference drug, CQ (1), their parent building blocks, TP10 and Cq (4), and first-generation conjugate 5a, regarding their ability to inhibit growth of blood-stage parasites of the CQ-sensitive P. falciparum 3D7 strain (Table 3). The primaquine analogues of Cq conjugates 5a and 14, respectively, PQ-C4-TP10 (3a) and TP10-S-S-PQ (Figure 2, 14′), were also included for comparison; the synthesis of these conjugates, 3a and 14′, has been reported elsewhere. Of note, substantial hemolysis was detected upon erythrocyte exposure to some of the test conjugates, particularly at the higher concentrations tested. In view of this, emolysis assays were also conducted on cultures of both hRBC and PiRBC (Table 3).
P. falciparum 3D7 strain (chloroquine and mefloquine susceptible) was continuously cultured as previously described. Parasitemia was monitored daily by microscopic examination of Giemsa (MERCK, Sigma-Aldrich) stained thin blood smears.
Synchronized ring-stage P. falciparum (3% hematocrit, 1% parasitemia) were incubated in a microtiter plate for 48 h in the presence of two-fold serial dilutions of TP10 and derived conjugates 11–15, in the 10–10000 nM concentration range. Cultures incubated with three-fold serial dilutions of chloroquine bisphosphate, and also of its analogue 4, in the 0.1–8000 nM concentration range, were included for comparison. Culture without test compounds was also added to the microtiter plate, as negative control. After incubation, 100 μL of a solution of SYBR Green (Thermo Fisher; SG; 0.001% v/v in PBS) was added to each well and plates incubated for another 60 min under standard culture conditions. Plates were then centrifuged at 2500 rpm for 2 min, the supernatant was discarded, and cells were re-suspended in 100 μL of PBS. Fluorescence was collected in a multi-mode microplate reader (Triad, Dynex Technologies) with excitation at 485 nm and emission at 535 nm. Fluorescence values were normalized (to take into account the normal growth of the parasite) and then plotted against logC. IC50 were determined using GraphPad Prism 6.

[3] = In vitro hemolytic activity on healthy erythrocytes; format: cell-based; details: healthy erythrocytes (hRBC); 10 µM, 1 h, hRBC only; dash with footnote c = hemolysis not detected; read-out: % hemolysis at 10 µM ± SD (n = 3), hRBC
Description: as §1

[4] = test system: hRBC; assay: as above; format: cell-based; details: cultures of hRBC and PiRBC, summary of Table 3
Description: as §1

[5] = test system: P. falciparum W2; format: cell-based; details: P. falciparum W2 (CQ-resistant), 48 h, n = 3
Description: All conjugates and their respective parent CPP (Table 1), were screened in vitro for their antiplasmodial activity, using the CQ-resistant P. falciparum W2 strain. The primaquine analogue to 5a, i.e., conjugate 3 where the CPP is TP10, PQ-C4-TP10 (3a), was also included in the study for comparison.
Synchronized ring-stage P. falciparum parasites (W2 strain) were incubated with test compounds for 48 h in Roswell Park Memorial Institute (RPMI) 1640 medium containing 10% human serum or 0.5% Albumax serum substitute. Parasites were then fixed with 1% formaldehyde in phosphate-buffered saline (PBS), pH 7.4, for […] at RT and labeled with YOYO-1 (1 nM; molecular probes) in 0.1% Triton X-100 in PBS. Parasitemias were determined by flow cytometry, from dot plots (forward scatter versus fluorescence). For 50% inhibitory concentration (IC50) determinations, dose-response studies were performed, with the values normalized to percent control activity, and IC50s were calculated using GraphPad Prism, with data fitted by nonlinear regression.

[6] = test system: P. falciparum W2; details: cited from earlier work
[7] = test system: P. falciparum 3D7; details: cited from earlier work

CC[C@H](C)[C@H](NC(=O)[C@H](CCCCN)NC(=O)[C@H](CCCCN)NC(=O)[C@H](C)NC(=O)[C@H](CC(C)C)NC(=O)[C@H](C)NC(=O)[C@H](C)NC(=O)[C@H](CC(C)C)NC(=O)[C@H](C)NC(=O)[C@H](CCCCN)NC(=O)[C@H](CC(C)C)NC(=O)[C@H](CC(N)=O)NC(=O)[C@@H](NC(=O)[C@H](CCCCN)NC(=O)CNC(=O)[C@H](CC(C)C)NC(=O)[C@H](CC(C)C)NC(=O)[C@H](Cc1ccc(O)cc1)NC(=O)CNC(=O)[C@H](C)NC(=O)CCC(=O)NCCCCNc1ccnc2cc(Cl)ccc12)[C@@H](C)CC)C(=O)N[C@@H](CC(C)C)C(N)=O [5a]
hemolysis at 1 h, 10 µM [1]: 6.5 ± 0.4%
IC50 [2]: 800 ± 100 nM
hemolysis at 1 h, 10 µM [3]: 23 ± 1%

CC[C@H](C)[C@H](NC(=O)[C@H](CCCCN)NC(=O)[C@H](CCCCN)NC(=O)[C@H](C)NC(=O)[C@H](CC(C)C)NC(=O)[C@H](C)NC(=O)[C@H](C)NC(=O)[C@H](CC(C)C)NC(=O)[C@H](C)NC(=O)[C@H](CCCCN)NC(=O)[C@H](CC(C)C)NC(=O)[C@H](CC(N)=O)NC(=O)[C@@H](NC(=O)[C@H](CCCCN)NC(=O)CNC(=O)[C@H](CC(C)C)NC(=O)[C@H](CC(C)C)NC(=O)[C@H](Cc1ccc(O)cc1)NC(=O)CNC(=O)[C@H](C)N)[C@@H](C)CC)C(=O)N[C@@H](CC(C)C)C(N)=O [TP10]
hemolysis at 1 h, 10 µM [1]: 3.4 ± 0.2%
IC50 [2]: 1900 ± 500 nM
hemolytic activity (in words) [4]: only slightly hemolytic
hemolysis at 1 h, 10 µM [3]: 3.7 ± 0.1%
IC50 [5]: 5530 nM and 5500 nM

CCN(CC)CCCC(C)Nc1ccnc2cc(Cl)ccc12 (stereo not drawn) [compound 1, chloroquine]
IC50 [6]: 699 nM
hemolytic activity (in words) [4]: not hemolytic
IC50 [7]: 21 nM

CC[C@H](C)[C@H](NC(=O)[C@H](CCCCN)NC(=O)[C@H](CCCCN)NC(=O)[C@H](C)NC(=O)[C@H](CC(C)C)NC(=O)[C@H](C)NC(=O)[C@H](C)NC(=O)[C@H](CC(C)C)NC(=O)[C@H](C)NC(=O)[C@H](CCCCN)NC(=O)[C@H](CC(C)C)NC(=O)[C@H](CC(N)=O)NC(=O)[C@@H](NC(=O)[C@H](CCCCN)NC(=O)CNC(=O)[C@H](CC(C)C)NC(=O)[C@H](CC(C)C)NC(=O)[C@H](Cc1ccc(O)cc1)NC(=O)CNC(=O)[C@H](C)NC(=O)CCCCCNC(=O)CCC(=O)NCCCCNc1ccnc2cc(Cl)ccc12)[C@@H](C)CC)C(=O)N[C@@H](CC(C)C)C(N)=O [compound 10]
hemolysis at 1 h, 10 µM [1]: 19 ± 1%
IC50 [2]: 800 ± 300 nM
hemolysis at 1 h, 10 µM [3]: 38 ± 2%

CC[C@H](C)[C@H](NC(=O)[C@H](CCCCN)NC(=O)[C@H](CCCCN)NC(=O)[C@H](C)NC(=O)[C@H](CC(C)C)NC(=O)[C@H](C)NC(=O)[C@H](C)NC(=O)[C@H](CC(C)C)NC(=O)[C@H](C)NC(=O)[C@H](CCCCN)NC(=O)[C@H](CC(C)C)NC(=O)[C@H](CC(N)=O)NC(=O)[C@@H](NC(=O)[C@H](CCCCN)NC(=O)CNC(=O)[C@H](CC(C)C)NC(=O)[C@H](CC(C)C)NC(=O)[C@H](Cc1ccc(O)cc1)NC(=O)CNC(=O)[C@H](C)NC(=O)[C@@H](N)Cc1cn(CCCCCC(=O)NCCCCNc2ccnc3cc(Cl)ccc23)nn1)[C@@H](C)CC)C(=O)N[C@@H](CC(C)C)C(N)=O [compound 11]
hemolysis at 1 h, 10 µM [1]: 10.7 ± 0.1%
IC50 [2]: 1200 ± 200 nM
hemolysis at 1 h, 10 µM [3]: 23 ± 1%

CC[C@H](C)[C@H](NC(=O)[C@H](CCCCN)NC(=O)[C@H](CCCCN)NC(=O)[C@H](C)NC(=O)[C@H](CC(C)C)NC(=O)[C@H](C)NC(=O)[C@H](C)NC(=O)[C@H](CC(C)C)NC(=O)[C@H](C)NC(=O)[C@H](CCCCN)NC(=O)[C@H](CC(C)C)NC(=O)[C@H](CC(N)=O)NC(=O)[C@@H](NC(=O)[C@H](CCCCN)NC(=O)CNC(=O)[C@H](CC(C)C)NC(=O)[C@H](CC(C)C)NC(=O)[C@H](Cc1ccc(O)cc1)NC(=O)CNC(=O)[C@H](C)NC(=O)[C@@H](N)CSSC[C@H](N)C(=O)NCCCCNc1ccnc2cc(Cl)ccc12)[C@@H](C)CC)C(=O)N[C@@H](CC(C)C)C(N)=O [compound 12]
hemolysis at 1 h, 10 µM [1]: 2 ± 0.3%
IC50 [2]: 1000 ± 300 nM
hemolysis at 1 h, 10 µM [3]: 8.5 ± 0.5%

CC[C@H](C)[C@H](NC(=O)[C@H](CCCCNC(=O)CCC(=O)NCCCCNc1ccnc2cc(Cl)ccc12)NC(=O)[C@H](CCCCN)NC(=O)[C@H](C)NC(=O)[C@H](CC(C)C)NC(=O)[C@H](C)NC(=O)[C@H](C)NC(=O)[C@H](CC(C)C)NC(=O)[C@H](C)NC(=O)[C@H](CCCCN)NC(=O)[C@H](CC(C)C)NC(=O)[C@H](CC(N)=O)NC(=O)[C@@H](NC(=O)[C@H](CCCCN)NC(=O)CNC(=O)[C@H](CC(C)C)NC(=O)[C@H](CC(C)C)NC(=O)[C@H](Cc1ccc(O)cc1)NC(=O)CNC(=O)[C@H](C)N)[C@@H](C)CC)C(=O)N[C@@H](CC(C)C)C(N)=O [compound 13]
hemolysis at 1 h, 10 µM [1]: 41 ± 2%
hemolysis at 1 h, 10 µM [3]: 50 ± 2%

CC[C@H](C)[C@H](NC(=O)[C@H](CCCCN)NC(=O)[C@H](CCCCN)NC(=O)[C@H](C)NC(=O)[C@H](CC(C)C)NC(=O)[C@H](C)NC(=O)[C@H](C)NC(=O)[C@H](CC(C)C)NC(=O)[C@H](C)NC(=O)[C@H](CCCCN)NC(=O)[C@H](CC(C)C)NC(=O)[C@H](CC(N)=O)NC(=O)[C@@H](NC(=O)[C@H](CCCCN)NC(=O)CNC(=O)[C@H](CC(C)C)NC(=O)[C@H](CC(C)C)NC(=O)[C@H](Cc1ccc(O)cc1)NC(=O)CNC(=O)[C@H](C)N)[C@@H](C)CC)C(=O)N[C@@H](CC(C)C)C(=O)N[C@@H](CSSC[C@H](N)C(=O)NCCCCNc1ccnc2cc(Cl)ccc12)C(N)=O [compound 14]
hemolysis at 1 h, 10 µM [1]: 7 ± 1%
IC50 [2]: 2300 ± 400 nM
hemolysis at 1 h, 10 µM [3]: 18.2 ± 0.8%

N-(7-Methylquinolin-4-yl)butane-1,4-diamine [compound 4]
IC50 [2]: 70 ± 20 nM
hemolytic activity (in words) [4]: not hemolytic
